Consider six compounds from patent US20120295866A1, “Synthesis And Use Of Glycoside Pro-Drug Analogs” (Nutek Pharma Ltd., priority 2011, published 2012).

In brackets after ≈: the same amount, converted by molar mass. Entries after “also recorded” stand apart in the source; their conditions may differ.

A short description of data set [1]: Solubility determination of propofol analogs in D2O by 1H NMR with DSS internal standard. The following applies: for solubility: D2O, water, thermodynamic from solid.
Description: Thus the soapy-like solutions obtained were diluted until opalescent and diluted further until the opalescence visually disappeared.
A further data set concerns rats. As to the kind of experiment: Clinical observations of rats during administration of propofol analogs in the pharmacokinetics study. As to the method:
(§1) Blood samples were to be taken pre-dose, during dose and post dose at designated intervals, with the blood quickly processed and stored at −70° C. until analysis.
(§2) Formulations were prepared on the morning of the dosing day and each was passed through a 0.22 μm filter prior to being administered to animals. A standard dose of 0.168 mmol/Kg per analog was administered to each of the rats. […] Analog stability in the formulations was verified by preparing each formulation and harvesting 200 μL aliquots at 0, 1, 2 and 8 hr while standing at room temperature. After harvesting, each sample was immediately frozen in dry ice until analysis; concentrations of test compounds in the samples were examined by HPLC-UV.
(§3) The animals were surgically prepared with indwelling cannula, double cannulation in carotid artery and jugular vein for i.v. infusion. The anesthetic pentobarbital was used during the surgery, and the animals were allowed to recover 3-5 days after surgery before the formulation was dosed. The dose formulation was administered intravenously via the jugular vein cannula. The 16.8 μmol/mL formulation was administered i.v. at a rate of 1 mL/Kg/min for 10 min.

Data set [2] in a line: Pharmacokinetics: concentration of propofol in rat plasma after intravenous infusion of each pro-drug, LC/MS/MS. As to conditions: for Mean Concentration of Propofol in Rat Plasma After Intravenous Administration: analyte propofol from the administered compound; for pro-drug efficiency, release of propofol: releasing the propofol in a matter of minutes after infusion, rat. As to the method:
as §1, §2, §3
(§4) Approximately 0.20 mL blood was collected at each designated time point from carotid artery via a catheter. A total of 12 plasma samples were taken from each animal: 1 pre-dose; 2 during the dose (5 into the 10 min infusion and one just prior termination of the 10 min infusion) and 9 post-infusion at 2, 5, 15, 30 min and 1, 2, 3, 4, and 6 hr post-dose. All blood samples were transferred into plastic microcentrifuge tubes containing 5 μL of K2-EDTA (0.5M) as anti-coagulant and placed on ice until processed for plasma. Blood samples were processed for plasma by centrifugation at approximately 5° C. Plasma samples were then stored in 1.5 mL tubes, quick frozen over dry ice and kept at −70±10° C. until LC/MSMS analysis.
(§5) For each, a minimum of 6 standard point curve runs in duplicates, and minimum of 5 standards were back calculated to within ±20% of their nominal concentrations. The LLOQ of each test article in plasma was established and 6 QC samples were included in assay runs of samples to ensure assay performance.
(§6) Plasma concentration versus time data was analyzed by non-compartmental approaches using the WinNonlin software program (version 5.2, Pharsight, Mountain View, Calif.) and the pharmacokinetic parameters T½, CL, Vss, AUC(0-t), AUC(0-inf), MRT, and graphs of plasma concentration versus time calculated for each.

A short description of data set [3]: Pharmacokinetics: concentration of prodrug (or propofol) in rat plasma after intravenous infusion, LC/MS/MS. As to conditions: for Mean concentration of prodrug and propofol in rat plasma after intravenous infusion administration: analyte = administered compound; for AUC(0-inf) / AUC(0-t) / Cmax / MRT inf / Tmax / half-life / Vd / clearance: male, Sprague-Dawley, rat, plasma, iv, 0.168 mmol/Kg. As for the experimental part:
as §1, §2, §3, §4, §5, §6

Where [4] appears, read: time post-10 min i.v. infusion, 0.168 mmol/Kg.

One may read the solubility as how much of the substance goes into solution per volume. High values mean much dissolved substance, low ones little dissolved substance. Broadly, the AUC(0-inf) is total exposure, with the tail of the curve extrapolated. Broadly, the AUC(0-t) is exposure summed from dosing to a finite time, without extrapolation to infinity. A word on the Cmax: it is the highest concentration seen after dosing. By MRT inf is commonly meant a mean duration of stay, worked out from the concentration-time curve. Broadly, the Tmax is the time from dosing to the highest level. As usually defined, the half-life is the time needed for the level to fall by half in the phase considered. The term Vd denotes the apparent volume that relates the amount in the body to the concentration in plasma or blood. One may read the clearance as a measure of how efficiently the substance is removed, as volume per time.

In data set [1], `CC(C)c1cccc(C(C)C)c1OC(=O)OCCO[C@@H]1O[C@H](CO)[C@@H](O)[C@H](O)[C@H]1O` [Compound 9] registered a solubility of 9.4 mM (≈ 4030 µg/mL). For the same compound, the “Clinical Observation: recovered at” value with rats (setting [4]) is reported as “recovered at about 30 min”. Besides, the “Mean Concentration of Propofol in Rat Plasma After Intravenous Administration” value (from here on “Mean Concentration of Propofol”) in data set [2] (Time 0 h (pre-dose)) is listed as “BQL”. The “pro-drug efficiency, release of propofol” value in data set [2] was “very efficient pro-drugs”. The “Mean concentration of prodrug and propofol in rat plasma after intravenous infusion administration” value in data set [3] (Time 0 h (pre-dose)), in data set [3] (Time 0.083 h (during 10 min infusion)), in data set [3] (Time 0.167 h (end of 10 min infusion)), in data set [3] (Time 0.2 h), in data set [3] (Time 0.25 h) and in data set [3] (Time 0.417 h) was “BQL” in each case. Also, the “Mean concentration of prodrug and propofol in rat plasma after intravenous infusion administration” value in data set [3] (Time 0.667 h), in data set [3] (Time 1.166 h), in data set [3] (Time 2.166 h), in data set [3] (Time 3.166 h), in data set [3] (Time 4.166 h) and in data set [3] (Time 6.166 h) was “BQL” in each case.

Compound `CC(C)c1cccc(C(C)C)c1OC(=O)OCCCO[C@@H]1O[C@H](CO)[C@@H](O)[C@H](O)[C@H]1O` [Compound 12] had a solubility in data set [1] of 5.5 mM (≈ 2430 µg/mL). Also, the “Clinical Observation: recovered at” value with rats (setting [4]) is “recovered at about 30 min”. Besides, the “Mean Concentration of Propofol” value in data set [2] (Time 0 h (pre-dose)), in data set [2] (Time 4.166 h) and in data set [2] (Time 6.166 h) was “BQL” each time. Besides, the “pro-drug efficiency, release of propofol” value in data set [2] is on record as “very efficient pro-drugs”. Further, the “Mean concentration of prodrug and propofol in rat plasma after intravenous infusion administration” value in data set [3] (Time 0 h (pre-dose)), in data set [3] (Time 0.2 h), in data set [3] (Time 0.25 h), in data set [3] (Time 0.417 h), in data set [3] (Time 0.667 h) and in data set [3] (Time 1.166 h) was “BQL” in each case. The “Mean concentration of prodrug and propofol in rat plasma after intravenous infusion administration” value in data set [3] (Time 2.166 h), in data set [3] (Time 3.166 h), in data set [3] (Time 4.166 h) and in data set [3] (Time 6.166 h) was “BQL” throughout. Further, the AUC(0-inf) in data set [3] was 0.00122 µM·h. Moreover, in data set [3], the AUC(0-t) came out at 0.000773 µM·h. Moreover, in data set [3], the Cmax was 0.00678 µM. For the same compound, the MRT inf in data set [3] was found to be 6 min. Moreover, in data set [3], the Tmax amounted to 10.2 min. Further, the half-life in data set [3] was 3.6 min.

`CC(C)c1cccc(C(C)C)c1OC(=O)NCCO[C@@H]1O[C@H](CO)[C@@H](O)[C@H](O)[C@H]1O` [Compound 17] gave a solubility in data set [1] of 1.6 mM (≈ 684 µg/mL). For the same compound, in data set [1] (reason for cosolvent in the dose formulation), the “water solubility (in words)” value is “poor water solubility”. In the data set with rats (times post-10 min infusion, vehicle 10% Tween80, cloudy), the “Clinical Observation (adverse findings, individual rats)” value is listed as “died at 15 min; also recorded: died at 1.5 h from hematuria”. Also, the “Mean Concentration of Propofol” value in data set [2] (Time 0 h (pre-dose)) is reported as “BQL”. Besides, the “Mean Concentration of Propofol” value in data set [2] (Time 2.166 h) is “BQL”. The “Mean Concentration of Propofol” value in data set [2] (Time 3.166 h) is recorded as “BQL”. In data set [2] (Time 4.166 h), the “Mean Concentration of Propofol” value is “BQL”. Moreover, the “Mean Concentration of Propofol” value in data set [2] (Time 6.166 h) was “BQL”. In data set [3] (Time 0 h (pre-dose)), the “Mean concentration of prodrug and propofol in rat plasma after intravenous infusion administration” value is listed as “BQL”. Moreover, in data set [3], the AUC(0-inf) amounted to 71.8 µM·h, the exposure AUC(0-t) is 61.6 µM·h, the Cmax amounted to 313 µM and the MRT inf was 16.6 min. In data set [3], the Tmax was 10.2 min, the Vd worked out at 0.657 L/kg, the clearance was determined as 39.1 mL/min/kg and the half-life is 26.2 min.

The compound `CC(C)c1cccc(C(C)C)c1OC(=O)OCCO[C@@H]1O[C@H](CO)C(O[C@H]2O[C@H](CO)[C@@H](O)[C@H](O)[C@H]2O)[C@H](O)[C@H]1O` (some centres unmarked) [Compound 24] returned a solubility in data set [1] of more than 20 mM. Moreover, the “Clinical Observation: recovered at” value in the data set with rats (setting [4]) is “recovered at about 30 min”. In addition, the “Mean Concentration of Propofol” value in data set [2] (Time 0 h (pre-dose)) was “BQL”. Further, the “pro-drug efficiency, release of propofol” value in data set [2] is “very efficient pro-drugs”. For the same compound, in data set [3] (Time 0 h (pre-dose)), the “Mean concentration of prodrug and propofol in rat plasma after intravenous infusion administration” value is reported as “BQL”. Moreover, the “Mean concentration of prodrug and propofol in rat plasma after intravenous infusion administration” value in data set [3] (Time 2.166 h) was “BQL”. The “Mean concentration of prodrug and propofol in rat plasma after intravenous infusion administration” value in data set [3] (Time 4.166 h) is on record as “BQL”. Also, the “Mean concentration of prodrug and propofol in rat plasma after intravenous infusion administration” value in data set [3] (Time 6.166 h) is recorded as “BQL”. Further, in data set [3], the AUC(0-inf) is 0.791 µM·h, the area under the curve AUC(0-t) came to 0.786 µM·h, the Cmax came to 8.1 µM and the mean residence time (MRT inf) stood at 12.4 min. Moreover, in data set [3], the Tmax was determined as 8.4 min, the Vd was 120 L/kg, the clearance stood at 5800 mL/min/kg and the half-life is 53.2 min.

In turn, `CC(C)c1cccc(C(C)C)c1OC(=O)OCCCO[C@@H]1O[C@H](CO)C(O[C@H]2O[C@H](CO)[C@@H](O)[C@H](O)[C@H]2O)[C@H](O)[C@H]1O` (stereo partly drawn) [Compound 25, 1-((2′,6′-diisopropylphenoxy)carbonyloxy)propyl-β-D-maltose] showed a solubility in data set [1] of more than 20 mM. Besides, in the data set on rats (setting [4]), the “Clinical Observation: recovered at” value is given as “recovered at about 35 min”. Besides, the “Mean Concentration of Propofol” value in data set [2] (Time 0 h (pre-dose)) is recorded as “BQL”. Further, the “pro-drug efficiency, release of propofol” value in data set [2] is listed as “very efficient pro-drugs”. In addition, the “Mean concentration of prodrug and propofol in rat plasma after intravenous infusion administration” value in data set [3] (Time 0 h (pre-dose)) is “BQL”. In addition, the “Mean concentration of prodrug and propofol in rat plasma after intravenous infusion administration” value in data set [3] (Time 3.166 h) is “BQL”. The “Mean concentration of prodrug and propofol in rat plasma after intravenous infusion administration” value in data set [3] (Time 4.166 h) is given as “BQL”. The “Mean concentration of prodrug and propofol in rat plasma after intravenous infusion administration” value in data set [3] (Time 6.166 h) was “BQL”. Besides, in data set [3], the AUC(0-inf) worked out at 8.57 µM·h, the AUC(0-t) turned out to be 8.57 µM·h, the Cmax is 68.4 µM and the MRT inf worked out at 4.62 min. In data set [3], the Tmax was 10.2 min, the Vd came to 1.51 L/kg, the clearance came out at 337 mL/min/kg and the half-life is 15.2 min.

`CC(C)c1cccc(C(C)C)c1OC(=O)OCCO[C@H]1O[C@H](CO)[C@@H](O)[C@H](O)[C@H]1O` [Compound 32] yielded a solubility in data set [1] of 13.3 mM (≈ 5700 µg/mL). Moreover, the “Clinical Observation: Rats soporous at” value in the data set with rats (setting [4]) was “Rats soporous at about 3 min and”. The “Clinical Observation: recovered at” value with rats (setting [4]) is “recovered at about 26 min”. In data set [2] (Time 0 h (pre-dose)), the “Mean Concentration of Propofol” value is on record as “BQL”. Moreover, the “pro-drug efficiency, release of propofol” value in data set [2] is given as “very efficient pro-drugs”. The “Mean concentration of prodrug and propofol in rat plasma after intravenous infusion administration” value in data set [3] (Time 0 h (pre-dose)), in data set [3] (Time 0.25 h), in data set [3] (Time 0.417 h), in data set [3] (Time 0.667 h), in data set [3] (Time 1.166 h) and in data set [3] (Time 2.166 h) was “BQL” throughout. The “Mean concentration of prodrug and propofol in rat plasma after intravenous infusion administration” value in data set [3] (Time 3.166 h), in data set [3] (Time 4.166 h) and in data set [3] (Time 6.166 h) was “BQL” each time. The AUC(0-t) in data set [3] was found to be 0.000657 µM·h. In addition, the Cmax in data set [3] came out at 0.00538 µM. Besides, the Tmax in data set [3] came out at 8.4 min.
